The test system of assay [1] is Candida albicans. In words: Antifungal activity against Candida albicans SC5314 assessed as reduction in microbial growth incubated for 24 hrs by serial dilution method. In kind it is functional.
The test system of assay [2] is Trichophyton rubrum. Briefly: Antifungal activity against Trichophyton rubrum 0501124 assessed as inhibition of fungal growth incubated for 24 hrs by broth microdilution method. It is filed as functional. On the technique in general: Broth dilution looks for growth in wells or tubes with falling amounts of substance.
Assay [3] deals with Candida albicans. Briefly: Antifungal activity against Candida albicans assessed as reduction in microbial growth. It is filed as functional.
Assay [4] has as its system Trichophyton rubrum. In words: Antifungal activity against Trichophyton rubrum assessed as fungal growth inhibition incubated for 5 to 7 days by NCCLS based assay. It is filed as functional. The note with it: time 5-7 day.
The subject of the next assay is Nannizzia gypsea. Briefly: Antifungal activity against Microsporum gypseum assessed as fungal growth inhibition incubated for 48 hrs by microplate reader assay. It is filed as functional.
In assay [5] the test system is Candida albicans. Briefly: Antifungal activity against Candida albicans ATCC 76615 assessed as fungal growth inhibition incubated for 5 to 7 days by NCCLS based assay. In kind it is functional. The note with it: time 5-7 day.
In assay [6] the test system is Candida albicans. In words: Antifungal activity against Candida albicans ATCC 10231 assessed as growth inhibition measured for 24 hrs by CLSI based method. It is filed as functional.
In the next assay the test system is Pichia kudriavzevii. Briefly: Antifungal activity against Candida krusei ATCC 6258 assessed as reduction in fungal growth by NCCLS method. It is filed as functional.
Assay [7] deals with Candida albicans. In words: Antifungal activity against Candida albicans SC5314 assessed as reduction in fungal growth incubated for 24 hrs by serial dilution method. In kind it is functional.
For a further assay, the system named is [Candida] auris. Briefly: Antifungal activity against Candida auris CBS 12373 assessed as reduction in microbial growth incubated for 24 hrs by serial dilution method. In kind it is functional. The note with it: Candidozyma auris.
Assay [8] deals with Candida albicans. Briefly: Antifungal activity against Candida albicans ATCC 10231 assessed as growth inhibition measured after 48 hrs by CLSI based method. It is filed as functional, organism-based. Particulars: ATCC 10231, 48 h.
A further assay addresses Cytochrome P450 3A4 (Homo sapiens, UniProt P08684). Briefly: Inhibition of CYP3A4 (unknown origin). In kind it is ADME.
The test system of assay [9] is Candida albicans. Briefly: Antifungal activity against Candida albicans ATCC 96901. In kind it is functional.
Assay [10] deals with Candida albicans. Briefly: Antifungal activity against Candida albicans assessed as reduction in fungal growth incubated for 24 hrs by broth microdilution method. In kind it is functional, organism-based.
Assay [11] relates to Candida albicans. In words: Antimicrobial activity against Candida albicans 90028 assessed as microbial growth inhibition by broth microdilution method. In kind it is functional.
The next assay has as its system Nakaseomyces glabratus. Briefly: Antifungal activity against Candida glabrata ATCC 15126 assessed as reduction in fungal growth incubated for 24 hrs by CLSI based microdilution analysis. In kind it is functional.
The subject of the next assay is Aspergillus fumigatus. Briefly: Antifungal activity against Aspergillus fumigatus CGMCC3 7795 assessed as reduction in fungal growth incubated for 48 hrs by CLSI based microdilution analysis. In kind it is functional.

SMILES strings stand for the structures. ≈ marks a conversion by molar mass, not a printed value.

Broadly, the MIC50 is an inhibitory concentration at the 50% level, which refers to growth in some studies and to a panel of isolates in others. As a reminder, the MIC80 is the lowest concentration that inhibits either 80% of growth or 80% of the strains tested, depending on the study. By MIC is commonly meant the lowest concentration that inhibits growth of the organism. One may read the IC50 as the midpoint of a concentration-inhibition curve. One may read the MIC90 as the lowest concentration that inhibits either 90% of growth or 90% of the strains tested, depending on the study.

Sequence of Cytochrome P450 3A4 (P08684 whole entry): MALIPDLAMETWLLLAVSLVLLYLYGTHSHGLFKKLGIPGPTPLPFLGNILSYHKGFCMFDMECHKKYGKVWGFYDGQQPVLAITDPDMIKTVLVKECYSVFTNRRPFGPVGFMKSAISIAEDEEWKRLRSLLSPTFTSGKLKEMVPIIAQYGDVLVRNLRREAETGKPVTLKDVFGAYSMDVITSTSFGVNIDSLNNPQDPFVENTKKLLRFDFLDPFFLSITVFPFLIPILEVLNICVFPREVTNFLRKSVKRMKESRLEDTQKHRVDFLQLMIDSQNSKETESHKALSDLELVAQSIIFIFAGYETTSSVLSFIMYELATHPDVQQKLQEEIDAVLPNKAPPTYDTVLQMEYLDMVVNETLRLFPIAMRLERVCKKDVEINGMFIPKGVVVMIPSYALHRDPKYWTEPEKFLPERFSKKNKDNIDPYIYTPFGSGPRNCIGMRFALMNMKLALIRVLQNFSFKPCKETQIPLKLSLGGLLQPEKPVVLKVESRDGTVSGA

Turning to `O[C@@](Cn1cnnn1)(c1ccc(F)cc1F)C(F)(F)c1ccc(-c2ccc(OC(F)(F)F)cc2)cn1`, the MIC50 in the assay on Candida albicans [1] was no more than 0.001 µg/mL.
Consider `OC(Cn1cnnn1)(c1ccc(F)cc1F)C(F)(F)c1ccc(C#Cc2ccc(F)cc2)cn1` (centres undefined), for which the MIC50 in the assay on Trichophyton rubrum [2] is greater than 64 µg/mL.
Regarding `N#Cc1ccc(COc2ccc(C#Cc3ccc(C(F)(F)C(O)(Cn4cnnn4)c4ccc(F)cc4F)nc3)cc2)cc1` (centres undefined), the MIC50 in the assay with Candida albicans [3] amounted to 0.031 µg/mL; with Trichophyton rubrum [2], 8 µg/mL (≈ 13.7 µM).
Consider `O=c1n(-c2ccc(C(F)(F)C(O)(Cn3cnnn3)c3ccc(F)cc3F)nc2)cnn1C1CCCC1` (centres undefined), for which, in the assay on Trichophyton rubrum [4], the MIC80 is 0.125 µg/mL (≈ 0.248 µM).
Take `CC(C)(C)Cn1ncn(-c2ccc(C(F)(F)C(O)(Cn3cnnn3)c3ccc(F)cc3F)nc2)c1=O` (centres undefined): the MIC50 in the assay with Trichophyton rubrum [2] came out at 2 µg/mL (≈ 3.95 µM). The MIC80 in the assay with Trichophyton rubrum [4] stood at 2 µg/mL (≈ 3.95 µM); in the assay with Nannizzia gypsea, 4 µg/mL (≈ 7.9 µM).
`O=c1n(-c2ccc(C(F)(F)C(O)(Cn3cnnn3)c3ccc(F)cc3F)nc2)cnn1C1CCCCC1` (centres undefined): in the assay on Trichophyton rubrum [2], the MIC50 was found to be 2 µg/mL (≈ 3.86 µM). The MIC80 in the assay on Trichophyton rubrum [4] was 2 µg/mL (≈ 3.86 µM); with Nannizzia gypsea, 4 µg/mL (≈ 7.71 µM).
In the case of `C[C@H](NC(=O)c1ccc2ccccc2n1)C(=O)NCc1ccncc1`, the MIC with Candida albicans [5] was 0.125 µg/mL (≈ 0.374 µM).
Still for that read-out and setting: then `O=C(CNC(=O)c1ccc2ccccc2n1)NCc1ccncc1`, with 0.125 µg/mL (≈ 0.39 µM).
Consider `Clc1ccc(C(Cn2ccnc2)[Se]Cc2ccccc2Cl)c(Cl)c1` (centres undefined), for which the minimum inhibitory concentration (MIC) in the assay on Candida albicans [6] came to 0.01 µg/mL (≈ 0.0225 µM).
`Fc1ccc([Se]C(Cn2ccnc2)c2ccc(F)cc2F)cc1` (centres undefined): the MIC in the assay on Candida albicans [6] is 0.02 µg/mL (≈ 0.0525 µM).
As for `CC(C)Cc1ccc([C@H](C)C(=O)NC[C@](O)(Cn2cncn2)c2ccc(F)cc2F)cc1`, in the assay with Pichia kudriavzevii, the MIC80 turned out to be 0.003 µg/mL (≈ 0.00678 µM).
On the same count and under the same terms, under `C[C@H](C(=O)NC[C@](O)(Cn1cncn1)c1ccc(F)cc1F)c1ccc(-c2ccccc2)c(F)c1` stands 0.007 µg/mL (≈ 0.0146 µM).
`CC(C)(C)c1ccc(-c2nnc(Nc3ccc(Cl)cc3)o2)cc1`: the figures for the MIC50 (in the assay with Candida albicans [7]; in assay [Candida] auris) were 0.5 µg/mL (≈ 1.53 µM) and 0.8 µg/mL, respectively. The concentration for half-maximal inhibition (IC50) with Candida albicans [8] is 0.9 µg/mL (≈ 2.75 µM); against Cytochrome P450 3A4, 30.5 µM.
In the case of `Cc1ccccc1[Se]C(Cn1ccnc1)c1ccc(Cl)cc1` (centres undefined), in the assay with Candida albicans [6], the MIC was 0.03 µg/mL (≈ 0.0798 µM).
As for `Clc1ccc(C(Cn2ccnc2)[Se]C(Cn2ccnc2)c2ccc(Cl)cc2)cc1` (centres undefined), the minimal inhibitory concentration (MIC) in the assay on Candida albicans [3] worked out at 2 µg/mL.
As for `Clc1ccc(C(Cn2ccnc2)[Se][Se]C(Cn2ccnc2)c2ccc(Cl)cc2Cl)c(Cl)c1` (centres undefined), the lowest concentration to inhibit growth with Candida albicans [9] (MIC) was 0.25 µg/mL (≈ 0.392 µM).
As to `O=C(N[C@@H](Cn1ccnc1)C(=O)NCc1ccccc1)c1ccc2ccccc2c1`, the MIC in the assay on Candida albicans [5] was determined as 0.25 µg/mL (≈ 0.627 µM).
Regarding `Cc1cccc(C)c1[Se]C(Cn1ccnc1)c1ccc(Cl)cc1` (centres undefined), the MIC in the assay on Candida albicans [3] is 0.03 µg/mL.
For `C[C@H](NC(=O)c1ccc2c(c1)OCCO2)C(=O)NCc1ccncc1`, in the assay on Candida albicans [5], the MIC is 0.125 µg/mL (≈ 0.366 µM).
As to `Cc1cccc(C)c1[Se]C(Cn1ccnc1)c1ccc(F)cc1` (centres undefined), the MIC in the assay on Candida albicans [6] amounted to 0.03 µg/mL (≈ 0.0804 µM).
For the compound `CCC/C=C/C=C/C=C(\C)[C@@H]1OC[C@H](C)[C@H](OC)[C@H]1OC(=O)CN`, in the assay with Candida albicans [10], the IC50 is 0.47 µM.
For the compound `CC(C)[C@H](NC(=O)c1ccc2c(c1)OCCO2)C(=O)NCc1cccnc1`, in the assay with Candida albicans [5], the MIC was found to be 0.125 µg/mL (≈ 0.338 µM).
Turning to `CC(C)[C@@H](C)/C=C/[C@@H](C)[C@H]1CC[C@H]2C3=CC=C4C[C@@H](O)CC[C@]4(C)[C@H]3CC[C@]12C` [ERGOSTEROL], the MIC90 in the assay with Candida albicans [11] came to 512 µg/mL (≈ 1290 µM).
As to `O=C(O)c1cc(O)c(O)c(O)c1` [GALLIC ACID], in the assay with Nakaseomyces glabratus, the MIC is 12.5 µg/mL (≈ 73.5 µM).
As for `N#Cc1ccc(COc2ccc(C#Cc3ccc(C(F)(F)[C@](O)(Cn4cnnn4)c4ccc(F)cc4F)nc3)cc2)cc1` [VT-1598], the figures for the MIC50 with Candida albicans [3] and in the assay on Aspergillus fumigatus were 0.007 µg/mL and 0.25 µg/mL (≈ 0.428 µM), respectively.

(Values after ChEMBL document CHEMBL5518157, “Strategies of targeting CYP51 for IFIs therapy: Emerging prospects, opportunities and challenges” (Eur J Med Chem, 2023).)
